Assay results published in patent US20230250096A1, “SUBSTITUTED PHENYL-1H-PYRROLO[2,3-c] PYRIDINE DERIVATIVES” (Janssen Pharmaceutica NV, priority 2021, published 2023).
pIC50: −log10 of the molar value.

Target: T1, menin/MLL (terbium chelate-labeled menin, FITC-MBM1 peptide) (Homo sapiens, UniProt O00255, T541A)
T1 construct: Menin (a.a 1-610-6xhis tag, 2.3 mg/mL in 20 mM Hepes)
T1 sequence (O00255 with tags, fused parts or gaps T541A): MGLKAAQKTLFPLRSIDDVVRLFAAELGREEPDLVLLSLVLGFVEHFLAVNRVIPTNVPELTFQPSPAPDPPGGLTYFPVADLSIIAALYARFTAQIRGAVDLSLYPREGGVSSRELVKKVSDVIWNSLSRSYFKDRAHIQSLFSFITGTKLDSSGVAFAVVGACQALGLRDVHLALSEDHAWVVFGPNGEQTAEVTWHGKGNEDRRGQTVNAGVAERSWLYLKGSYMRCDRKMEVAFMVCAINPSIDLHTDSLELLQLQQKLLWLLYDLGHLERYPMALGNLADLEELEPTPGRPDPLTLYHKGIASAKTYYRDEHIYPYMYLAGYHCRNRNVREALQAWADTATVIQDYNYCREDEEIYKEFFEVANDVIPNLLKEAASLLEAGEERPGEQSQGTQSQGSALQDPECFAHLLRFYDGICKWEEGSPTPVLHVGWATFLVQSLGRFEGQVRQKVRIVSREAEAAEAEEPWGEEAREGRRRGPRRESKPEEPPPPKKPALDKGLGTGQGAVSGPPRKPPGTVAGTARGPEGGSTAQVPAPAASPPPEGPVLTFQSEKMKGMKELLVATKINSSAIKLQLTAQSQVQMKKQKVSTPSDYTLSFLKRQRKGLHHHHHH
Test: Menin/MLL homogenous time-resolved fluorescence (HTRF) assay
Assay type: binding
Conditions: 30 min incubation
Method in brief: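 Terbium-labeled menin (a.a. 1-610, His-tagged; […]) pre-incubated 30 min with compound, then 75 nM FITC-MBM1 peptide added for 15 min at ambient temperature in Tris pH 7.5 buffer, 0.5% DMSO. HTRF 520/490 nm ratio read; IC50 from 11-point four-fold titrations, typically from 10 μM.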

Row | pIC50 | SMILES
1 | > 11.02 | Cc1cncc2c1c(CC1CCN(CC3CCN(C(=O)CC#N)CC3)C1)cn2-c1ccc(F)cc1C(=O)N(C)C(C)C (single isomer, unassigned) [Compound 60]
2 | 10.46 | Cc1cncc2c1c(C[C@@H]1CCN(CC3CCOCC3)C1)cn2-c1ccc(F)cc1C(=O)N(CCO)C(C)C [Compound 357]
3 | 10.09 | Cc1cncc2c1c(C[C@@H]1CCN(CC3CCOCC3)C1)cn2-c1ccc(F)cc1C(=O)N(C[C@H](C)O)C(C)C (single isomer, unassigned) [Compound 365b]
4 | 9.94 | CNC(=O)[C@H]1CC[C@H](CN2CCC(Cc3cn(-c4ccc(F)cc4C(=O)N(C)C(C)C)c4cncc(C)c34)C2)CC1 (single isomer, unassigned) [Compound 70]
5 | 10.27 | COCC(=O)N1CCC(CN2CCC(Cc3cn(-c4ccc(F)cc4C(=O)N(C)C(C)C)c4cncc(C)c34)C2)CC1 (single isomer, unassigned) [Compound 59]
6 | 10.44 | CCN(C(=O)c1cc(F)ccc1-n1cc(CC2CN(C(C(C)C)[C@H]3C[C@@H](N4C[C@H]5CN(C(C)=O)C[C@@H]5C4)C3)C2)c2c(C)cncc21)C(C)C (mixture of isomers) [Compound 38a]
7 | 9.87 | CC(=O)N1CCC(CN2CCC(Cc3cn(-c4ccc(F)cc4C(=O)N(C)C(C)C)c4cncc(C)c34)CC2)CC1 [Compound 58]
8 | 10.47 | CC(=O)N1C[C@@H]2CN([C@H]3C[C@@H]([C@@H](C(C)C)N4CC(Cc5cn(-c6ccc(F)cc6C(=O)N(C)C(C)C)c6cncc(Cl)c56)C4)C3)C[C@H]2C1 (single isomer, unassigned) [Compound 39a]
9 | 10.52 | Cc1cncc2c1c(C[C@@H]1CCN(CC3CCOCC3)C1)cn2-c1ccc(F)cc1C(=O)N(C)C(C)C (single isomer, unassigned) [Compound 42]
10 | 9.69 | CC(C)C([C@H]1C[C@@H](N(C)C)C1)N1CC(Cc2cn(-c3ccc(F)cc3C(=O)N(C)C(C)C)c3cncc(Cl)c23)C1 (some centres unmarked) [Compound 41]
11 | 10.43 | COCC(=O)N1CCC(CN2CC(Cc3cn(-c4ccc(F)cc4C(=O)N(C)C(C)C)c4cncc(C)c34)C2)CC1 [Compound 66]
12 | 10.22 | Cc1cncc2c1c(C[C@H]1CCN([C@@H](C)C3CCOCC3)C1)cn2-c1ccc(F)cc1C(=O)N(C)C(C)C (single isomer, unassigned) [Compound 49b]
13 | 10.27 | Cc1cncc2c1c(C[C@H]1CCN(CC(C)C)C1)cn2-c1ccc(F)cc1C(=O)N(C)C(C)C (single isomer, unassigned) [Compound 45]
14 | 10.32 | Cc1cncc2c1c(C[C@H]1CCN(C(C)C3CCOCC3)C1)cn2-c1ccc(F)cc1C(=O)N(C)C(C)C (mixture of isomers) [Compound 49]
15 | 10.57 | Cc1cncc2c1c(C[C@H]1CCN(CC3CCOCC3)C1)cn2-c1ccc(F)cc1C(=O)N(C)C(C)C (single isomer, unassigned) [Compound 43]
16 | 9.69 | CNC(=O)[C@H]1CC[C@H](CN2CCC(Cc3cn(-c4ccc(F)cc4C(=O)N(C)C(C)C)c4cncc(C)c34)C2)CC1 (single isomer, unassigned) [Compound 71]
17 | ~10.37 | Cc1cncc2c1c(CC1CN(CC3CCN(C(=O)CC#N)CC3)C1)cn2-c1ccc(F)cc1C(=O)N(C)C(C)C [Compound 67]
18 | 10.21 | CC(=O)N1CCN([C@H]2C[C@@H]([C@@H](C(C)C)N3CC(Cc4cn(-c5ccc(F)cc5C(=O)N(C)C(C)C)c5cncc(C)c45)C3)C2)CC1 (single isomer, unassigned) [Compound 32a]
19 | 10.31 | Cc1cncc2c1c(C[C@H]1CCN(C[C@H]3CC[C@H](NS(C)(=O)=O)CC3)C1)cn2-c1ccc(F)cc1C(=O)N(C)C(C)C (single isomer, unassigned) [Compound 69]
20 | 10.15 | Cc1cncc2c1c(CC1CN([C@@H](C(C)C)[C@H]3C[C@@H](N4CCC(S(C)(=O)=O)CC4)C3)C1)cn2-c1ccc(F)cc1C(=O)N(C)C(C)C [Compound 33a]
21 | 9.88 | Cc1cncc2c1c(CC1CN(CC3CCOCC3)C1)cn2-c1ccc(F)cc1C(=O)N(C)C(C)C [Compound 61]
22 | 10.22 | Cc1cncc2c1c(C[C@@H]1CCN(CC(C)C)C1)cn2-c1ccc(F)cc1C(=O)N(C)C(C)C (single isomer, unassigned) [Compound 44]
23 | 10.48 | COCCN(C)CCCC(C(C)C)N1CC[C@@H](Cc2cn(-c3ccc(F)cc3C(=O)N(C)C(C)C)c3cncc(C)c23)C1 (some centres unmarked) [Compound 1]
24 | 9.75 | CC(=O)N1CCC(CN2CC(Cc3cn(-c4ccc(F)cc4C(=O)N(C)C(C)C)c4cncc(C)c34)C2)CC1 [Compound 63]
25 | 9.90 | CCN(C(=O)c1cc(F)ccc1-n1cc(CC2CN(C(C(C)C)[C@H]3C[C@@H](N4CCN(S(C)(=O)=O)CC4)C3)C2)c2c(C)cncc21)C(C)C (some centres unmarked) [Compound 37a]

Row | SMILES | pIC50
26 | CC(=O)N1CCC(CN2CC[C@@H](Cc3cn(-c4ccc(F)cc4C(=O)N(C)C(C)C)c4cncc(C)c34)C2)CC1 (single isomer, unassigned) [Compound 50] | 10.10
